This experiment addresses Human transferrin (Htf) (Homo sapiens, UniProt P02787). In words: isothermal titration calorimetry. The class given is binding. (ITC needs no label: the signal is the heat of the interaction.)

Chain of Human transferrin (Htf) (P02787 20-698): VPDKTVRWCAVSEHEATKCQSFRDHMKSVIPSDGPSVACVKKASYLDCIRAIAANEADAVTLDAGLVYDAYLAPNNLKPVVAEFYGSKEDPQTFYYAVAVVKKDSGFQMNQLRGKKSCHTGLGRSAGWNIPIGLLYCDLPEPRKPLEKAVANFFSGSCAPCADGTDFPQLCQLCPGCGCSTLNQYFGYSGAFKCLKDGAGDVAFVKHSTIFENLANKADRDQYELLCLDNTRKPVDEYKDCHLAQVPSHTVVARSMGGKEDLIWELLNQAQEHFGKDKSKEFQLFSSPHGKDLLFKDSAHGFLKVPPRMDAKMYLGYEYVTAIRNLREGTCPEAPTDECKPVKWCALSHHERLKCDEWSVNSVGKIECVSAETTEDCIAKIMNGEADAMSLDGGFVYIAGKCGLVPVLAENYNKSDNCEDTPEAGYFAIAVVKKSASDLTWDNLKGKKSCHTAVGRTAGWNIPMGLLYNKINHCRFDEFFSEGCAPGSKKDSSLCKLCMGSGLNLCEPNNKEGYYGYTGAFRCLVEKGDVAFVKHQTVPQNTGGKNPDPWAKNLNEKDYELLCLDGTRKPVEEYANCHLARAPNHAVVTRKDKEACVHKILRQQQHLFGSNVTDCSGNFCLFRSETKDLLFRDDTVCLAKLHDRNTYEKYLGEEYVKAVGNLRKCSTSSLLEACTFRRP

What is called Kd is a measure of binding affinity in units of concentration. Higher therefore signals lower affinity. The compound `O=c1oc2c(O)c(O)cc3c(=O)oc4c(O)c(O)cc1c4c23` [Ellagic acid] had a Kd of 1450 nM.

The record behind these values is paper PMC11007773 (ACS Omega, 2024).
